We go through 29 compounds from the supplement of paper PMC10949913.

What all share (conditions): 48 h
Test [1] relates to CU-ACC1. Briefly: AC50 viability; higher = less potent. The procedure, abridged:
(§1)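 Three adrenocortical carcinoma cell lines were seeded at 500–1,000 cells/well in 5 µL medium in 1,536-well plates. 23 nL of each MIPE 5.0 library compound was added at 11 concentrations. After 48 h (per the protocol name), CellTiter-Glo was added for 15 minutes at room temperature and luminescence was read. Signals were normalised per plate to vehicle and empty-well controls. AC50 and area under the curve came from fitted concentration-response curves, keeping only inhibitory or non-responding curve classes.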

The subject of test [2] is CU-ACC1. Briefly: area under concentration-response curve (viability) (AUC (a.u.)); higher = less active. The procedure, abridged: as §1
Test [3] relates to CU-ACC2. The description is as above. A digest of the protocol: as §1
For test [4], the system named is NCI-H295R. The description is as above. The procedure, abridged:
as §1

On to `Cc1cc(-c2ncc(CC(=O)Nc3ccc(-c4cnccn4)cn3)cc2C)ccn1`, for which, in test [1], the AC50 viability is 7.42 µM. For the same compound, the “area under concentration-response curve” value worked out at 429 in test [2], 597 in test [3] and 500 in test [4].

`c1ccc2c(-c3cnn4cc(-c5ccc(OCCN6CCOCC6)cc5)cnc34)ccnc2c1` had an AC50 viability in test [1] of 4.56 µM. Besides, the “area under concentration-response curve” value was found to be 395 in test [2], 637 in test [3] and 568 in test [4].

For `CNC(=O)c1c(F)cccc1Nc1nc(Nc2cc3c(cc2OC)CCN3C(=O)CN(C)C)nc2[nH]ccc12`, the AC50 viability in test [1] was determined as 20.9 µM. For the same compound, the “area under concentration-response curve” value came out at 524 in test [2], 526 in test [3] and 458 in test [4].

With `COC1CCN(CC1)C(=O)C2=CC(=CC=C2F)CC/3=N/NC(=O)C4=CC=CC=C34`, the AC50 viability in test [1] was determined as 0.209 µM. Also, the entries for the “area under concentration-response curve” value in test [2], in test [3] and in test [4] were 441, 457 and 423, respectively.

In the case of `Cn1cnc2c(F)c(Nc3ccc(Br)cc3F)c(C(=O)NOCCO)cc21`, the AC50 viability in test [1] was determined as 0.0332 µM. Moreover, the “area under concentration-response curve” value was 242 in test [2], 145 in test [3] and 159 in test [4].

As for `Cc1ccc(N[S+](=O)([O-])c2cccc(C#N)c2)c2[nH]cc(C#N)c12`, the AC50 viability in test [1] came to 0.833 µM. In addition, the “area under concentration-response curve” value amounted to 451 in test [2], 576 in test [3] and 489 in test [4].

Compound `C=CC(=O)N1CCC(C2CCNc3c(C(N)=O)c(-c4ccc(Oc5ccccc5)cc4)nn32)CC1` (stereo unspecified) returned an AC50 viability in test [1] of 16.6 µM. For the same compound, the “area under concentration-response curve” value came out at 492 in test [2], 614 in test [3] and 553 in test [4].

Compound `CNC(=O)c1cc(Oc2ccc3nc(N[C@@H]4CCCC[C@H]4O)sc3c2)ccn1` returned an AC50 viability in test [1] of 20.9 µM. In addition, the “area under concentration-response curve” value is 481 in test [2], 583 in test [3] and 548 in test [4].

For `O=C(Nc1ccccc1Br)N[C@@H]1CCN(c2ccc(C(F)(F)F)cn2)C1`, the AC50 viability in test [1] was determined as 20.9 µM. The “area under concentration-response curve” value in test [2] was found to be 477; in test [3], 575; in test [4] it was 539.

Take `CN(NC(=O)CC(=O)NN(C)C(=S)c1ccccc1)C(=S)c1ccccc1`: in test [1], the AC50 viability was 3.72 µM. The “area under concentration-response curve” value in test [2] turned out to be 402; in test [3], 567; in test [4], 521.

On to `Cc1c[nH]c(/C=C2\C(=O)Nc3ccccc32)c1CCC(=O)O`, for which the AC50 viability in test [1] amounted to 0.0105 µM. Also, the entries for the “area under concentration-response curve” value in test [2], in test [3] and in test [4] were 428, 353 and 381, respectively.

In test [1], `O=C(O)c1ccc(O)c2ncccc12` registered an AC50 viability of 33.2 µM. The “area under concentration-response curve” value in test [2] was 458; in test [3] it was 491; in test [4], 447.

For the compound `C[C@@H]1CC[C@@]2(CC[C@]3(C)\C(=C/C[C@@H]4[C@@]5(C)CC[C@H](O)C(C)(C)[C@@H]5CC[C@@]34C)[C@@H]2[C@H]1C)C(O)=O`, in test [1], the AC50 viability was determined as 9.34 µM. In addition, the “area under concentration-response curve” value worked out at 402 in test [2], 441 in test [3] and 419 in test [4].

As to `CN(C)CCOc1cc(-c2cn[nH]c2)ccc1NC(=O)C1COc2ccccc2O1` (stereo unspecified), in test [1], the AC50 viability was found to be 20.9 µM. Also, the “area under concentration-response curve” value is 390 in test [2], 426 in test [3] and 452 in test [4].

The compound `CC1=C(C)C\2=C(S1)[N]3C(=NN=C3C(CC(=O)NC4=CC=C(O)C=C4)\N=C2C5=CC=C(Cl)C=C5)C` (stereo unspecified) showed an AC50 viability in test [1] of 2.63 µM. Besides, the “area under concentration-response curve” value amounted to 458 in test [2], 549 in test [3] and 527 in test [4].

In turn, `CC(C)n1c(/C=C/[C@H](O)C[C@H](O)CC(=O)O)c(-c2ccc(F)cc2)c2ccccc21` showed an AC50 viability in test [1] of 10.5 µM. In addition, the “area under concentration-response curve” value was determined as 506 in test [2], 617 in test [3] and 567 in test [4].

In test [1], `O=C(NC[C@H](O)CO)c1ccncc1Nc1ccc(I)cc1F` yielded an AC50 viability of 11.8 µM. Besides, the “area under concentration-response curve” value turned out to be 397 in test [2], 506 in test [3] and 537 in test [4].

`Nc1nccc(-c2c(-c3ccc(F)cc3)ncn2C2CCCCC2)n1` displayed an AC50 viability in test [1] of 14.8 µM. For the same compound, the “area under concentration-response curve” value stood at 480 in test [2], 621 in test [3] and 556 in test [4].

In test [1], `CC#C[C@@H](CC(=O)O)c1ccc(OCc2cccc(-c3ccc(C(F)(F)F)cc3)c2)cc1` yielded an AC50 viability of 1.48 µM. Moreover, the “area under concentration-response curve” value in test [2] turned out to be 406; in test [3] it was 506; in test [4], 411.

`COc1ccc(Cn2ccc3ccc(C(=O)NO)cc32)cc1`: the AC50 viability in test [1] was 23.5 µM. Besides, the “area under concentration-response curve” value in test [2] was 524; in test [3], 625; in test [4] it was 582.

On to `Cc1cccc(CC(=O)N2CCc3c2ccc(-c2cn(C)c4ncnc(N)c24)c3F)n1`, for which the AC50 viability in test [1] was determined as 4.68 µM. Besides, the “area under concentration-response curve” value in test [2] was found to be 487; in test [3], 644; in test [4], 551.

In the case of `CCC(=O)N[C@H]1CC[C@H](C(=O)N(C)c2ccc(-c3nc4ccccc4o3)cc2)C1`, the AC50 viability in test [1] turned out to be 23.5 µM. The “area under concentration-response curve” value in test [2] worked out at 548; in test [3], 661; in test [4], 555.

`COc1nnc2ccc(N3CCC(c4ccc(OCCN5CCN(C)C(=O)[C@H]5C)cc4)CC3)nn12` returned an AC50 viability in test [1] of 0.263 µM. Further, the “area under concentration-response curve” value was 468 in test [2], 449 in test [3] and 474 in test [4].

Compound `CN[S+]([O-])(=O)NC1=NC=CC(=C1F)CC/2=C(C)/C3=CC=C(OC4=NC=CC=N4)C=C3OC2=O` came in with an AC50 viability in test [1] of 7.42 µM. Besides, the results for the “area under concentration-response curve” value in test [2], in test [3] and in test [4] were 441, 611 and 577, respectively.

`Cc1c(C(=O)N2CCOc3ccc(-c4ccc(N)nc4)cc3C2)ccc([S+](C)(=O)[O-])c1F`: the AC50 viability in test [1] amounted to 8.33 µM. Besides, the entries for the “area under concentration-response curve” value in test [2], in test [3] and in test [4] were 428, 516 and 473, respectively.

With `CN[C@@H]1C[C@H]2O[C@@](C)([C@@H]1OC)n1c3ccccc3c3c4c(c5c6ccccc6n2c5c31)C(=O)NC4`, in test [1], the AC50 viability was found to be 0.833 µM. Also, the figures for the “area under concentration-response curve” value in test [2], in test [3] and in test [4] were 385, 359 and 346, respectively.

Regarding `O=C(O)c1nn(Cc2ccc(Cl)cc2Cl)c2ccccc12`, the AC50 viability in test [1] is 1.66 µM. Moreover, the results for the “area under concentration-response curve” value in test [2], in test [3] and in test [4] were 442, 464 and 440, respectively.

With `CCc1c(C(=O)NNC(=O)[C@@H](O)c2cc(F)cc(F)c2)ccc(O)c1C`, the AC50 viability in test [1] stood at 26.3 µM. Moreover, the “area under concentration-response curve” value is 387 in test [2], 492 in test [3] and 441 in test [4].

Regarding `CN(C)C(=O)[C@H](O)[C@H](Cc1ccccc1)NC(=O)c1cc2cc(Cl)ccc2[nH]1`, in test [1], the AC50 viability worked out at 0.0118 µM. Moreover, the “area under concentration-response curve” value in test [2] was found to be 364; in test [3] it was 420; in test [4] it was 444.
